The test system of assay [1] is MOLM-13 cells. The experiment in a line: Cell viability assay (CellTiter-Glo) in MOLM-13 cells, alone or with gilteritinib. Type of assay: cell-based. The conditions noted are these: Homo sapiens, MOLM-13, 72 h, MOLM-13 cells, three days, CellTiter-Glo.
Assay [2] relates to MV4;11 cells. In words: Cell viability assay (CellTiter-Glo) in MV4;11 cells, alone or with gilteritinib. The class given is cell-based. The conditions noted are these: MV4;11 cells, three days, CellTiter-Glo, read-out: MV4. (In ATP-based viability assays light output follows the ATP content of the culture.)
Where [3] appears, read: compound alone (without gilteritinib), read-out: MOLM-13 IC50.
The mark [4] stands for this setting: with gilteritinib 20 nM, read-out: MOLM-13 IC50 gilteritinib.
The mark [5] stands for this setting: Homo sapiens, MV4-11, 72 h, compound alone (without gilteritinib), 11 IC50.
Setting [6] is: Homo sapiens, MV4-11, 72 h, with gilteritinib 10 nM, 11 IC50 gilteritinib.

Drawing on US20240050428A1 (Cullgen (Shanghai), Inc., priority 2020, published 2024), this text covers IC50 for 19 compounds.

Molecules are shown by their SMILES. Where two headings read alike, the source gives them in different places. Where only a bound is given, the exact number is not on record here.

In the case of `N#Cc1cccc2nc(-c3cnn([C@H]4C[C@H](CCCNc5ccc6c(c5)C(=O)N(C5CCC(=O)NC5=O)C6=O)C4)c3)cnc12` (stereo partly drawn) [GS-233, 2-(1-(trans-3-(3-((2-(2,6-Dioxopiperidin-3-yl)-1,3-dioxoisoindolin-5-yl)amino)propyl)cyclobutyl)-1H-pyrazol-4-yl)quinoxaline-5-carbonitrile], the IC50 lay in the range of 0.1 to 1 µM in assay [1] (setting [3]), 0.01 to 0.1 µM in assay [1] (setting [4]), 0.1 to 1 µM in assay [2] (setting [5]) and 0.01 to 0.1 µM in assay [2] (setting [6]).
As to `O=C1CCC(N2C(=O)c3ccc(NCCC[C@H]4C[C@H](n5cc(-c6cnc7c(F)cccc7n6)cn5)C4)cc3C2=O)C(=O)N1` (stereo partly drawn) [GS-234, 2-(2,6-Dioxopiperidin-3-yl)-5-((3-(trans-3-(4-(5-fluoroquinoxalin-2-yl)-1H-pyrazol-1-yl)cyclobutyl)propyl)amino)isoindoline-1,3-dione], the IC50 was 0.1 to 1 µM in assay [1] (setting [3]), 0.01 to 0.1 µM in assay [1] (setting [4]), below 0.01 µM in assay [2] (setting [5]) and 0.01 to 0.1 µM in assay [2] (setting [6]).
On to `O=C1CCC(N2C(=O)c3ccc(NCCC[C@H]4C[C@H](n5cc(-c6cnccn6)cn5)C4)cc3C2=O)C(=O)N1` (stereo partly drawn) [GS-235, 2-(2,6-Dioxopiperidin-3-yl)-5-((3-(trans-3-(4-(pyrazin-2-yl)-1H-pyrazol-1-yl)cyclobutyl)propyl)amino)isoindoline-1,3-dione], for which the IC50 in assay [1] (setting [3]) was above 1 µM; in assay [1] (setting [4]), 0.1 to 1 µM; in assay [2] (setting [5]), below 0.01 µM; in assay [2] (setting [6]), 0.1 to 1 µM.
Take `O=C1CCC(N2C(=O)c3ccc(NCCC[C@H]4C[C@H](n5cc(-c6cccc(C7CCOCC7)n6)cn5)C4)cc3C2=O)C(=O)N1` (stereo partly drawn) [GS-236, 2-(2,6-Dioxopiperidin-3-yl)-5-((3-(trans-3-(4-(6-(tetrahydro-2H-pyran-4-yl)pyridin-2-yl)-1H-pyrazol-1-yl)cyclobutyl)propyl)amino)isoindoline-1,3-dione]: the IC50 was in the range of 0.1 to 1 µM in assay [1] (setting [3]), 0.01 to 0.1 µM in assay [1] (setting [4]), 0.1 to 1 µM in assay [2] (setting [5]) and 0.01 to 0.1 µM in assay [2] (setting [6]).
As to `CN1CCC(c2cccc(-c3cnn([C@H]4C[C@H](CCCNc5ccc6c(c5)C(=O)N(C5CCC(=O)NC5=O)C6=O)C4)c3)n2)CC1` (stereo partly drawn) [GS-237, 2-(2,6-Dioxopiperidin-3-yl)-5-((3-(trans-3-(4-(6-(1-methylpiperidin-4-yl)pyridin-2-yl)-1H-pyrazol-1-yl)cyclobutyl)propyl)amino)isoindoline-1,3-dione], the IC50 in assay [1] (setting [3]) was above 1 µM; in assay [1] (setting [4]) it was 0.1 to 1 µM; in assay [2] (setting [5]), above 1 µM; in assay [2] (setting [6]), 0.1 to 1 µM.
For the compound `O=C1CCC(N2C(=O)c3ccc(NCCC[C@H]4C[C@H](n5cc(-c6cccc(C7CCNCC7)n6)cn5)C4)cc3C2=O)C(=O)N1` (stereo partly drawn) [GS-238, 2-(2,6-Dioxopiperidin-3-yl)-5-((3-(trans-3-(4-(6-(piperidin-4-yl)pyridin-2-yl)-1H-pyrazol-1-yl)cyclobutyl)propyl)amino)isoindoline-1,3-dione], the IC50 is 0.01 to 0.1 µM in assay [1] (setting [3]), 0.01 to 0.1 µM in assay [1] (setting [4]), 0.1 to 1 µM in assay [2] (setting [5]) and 0.01 to 0.1 µM in assay [2] (setting [6]).
Take `O=C1CCC(N2C(=O)c3ccc(NCCC[C@H]4C[C@H](n5cc(-c6ccnc(N7CCOCC7)n6)cn5)C4)cc3C2=O)C(=O)N1` (stereo partly drawn) [GS-239, 2-(2,6-Dioxopiperidin-3-yl)-5-((3-(trans-3-(4-(2-morpholinopyrimidin-4-yl)-1H-pyrazol-1-yl)cyclobutyl)propyl)amino)isoindoline-1,3-dione]: the IC50 in assay [1] (setting [3]) is above 1 µM; in assay [1] (setting [4]) it was 0.01 to 0.1 µM; in assay [2] (setting [5]), 0.1 to 1 µM; in assay [2] (setting [6]), 0.01 to 0.1 µM.
Consider `O=C1CCC(N2C(=O)c3ccc(NCCC[C@H]4C[C@H](n5cc(-c6nccc(N7CCOCC7)n6)cn5)C4)cc3C2=O)C(=O)N1` (stereo partly drawn) [GS-240, 2-(2,6-Dioxopiperidin-3-yl)-5-((3-(trans-3-(4-(4-morpholinopyrimidin-2-yl)-1H-pyrazol-1-yl)cyclobutyl)propyl)amino)isoindoline-1,3-dione], for which the IC50 in assay [1] (setting [3]) is 0.1 to 1 µM; in assay [1] (setting [4]), 0.01 to 0.1 µM; in assay [2] (setting [5]), 0.01 to 0.1 µM; in assay [2] (setting [6]), below 0.01 µM.
Turning to `O=C1CCC(N2C(=O)c3ccc(NCCC[C@H]4C[C@H](n5cc(-c6cccc(N7CCOCC7)c6)cn5)C4)cc3C2=O)C(=O)N1` (stereo partly drawn) [GS-241, 2-(2,6-Dioxopiperidin-3-yl)-5-((3-(trans-3-(4-(3-morpholinophenyl)-1H-pyrazol-1-yl)cyclobutyl)propyl)amino)isoindoline-1,3-dione], the IC50 was above 1 µM in assay [1] (setting [3]), 0.1 to 1 µM in assay [1] (setting [4]), 0.1 to 1 µM in assay [2] (setting [5]) and 0.1 to 1 µM in assay [2] (setting [6]).
Consider `O=C1CCC(N2C(=O)c3ccc(NCCC[C@H]4C[C@H](n5cc(-c6ncccn6)cn5)C4)cc3C2=O)C(=O)N1` (stereo partly drawn) [GS-242, 2-(2,6-Dioxopiperidin-3-yl)-5-((3-(trans-3-(4-(pyrimidin-2-yl)-1H-pyrazol-1-yl)cyclobutyl)propyl)amino)isoindoline-1,3-dione], for which the IC50 in assay [1] (setting [3]) is above 1 µM; in assay [1] (setting [4]), 0.1 to 1 µM; in assay [2] (setting [5]) it was above 1 µM; in assay [2] (setting [6]), 0.1 to 1 µM.
Turning to `O=C1CCC(N2C(=O)c3ccc(NCCC[C@H]4C[C@H](n5cc(-c6cnc7ccccc7n6)c(C(F)F)n5)C4)cc3C2=O)C(=O)N1` (stereo partly drawn) [GS-243, 5-((3-(trans-3-(3-(Difluoromethyl)-4-(quinoxalin-2-yl)-1H-pyrazol-1-yl)cyclobutyl)propyl)amino)-2-(2,6-dioxopiperidin-3-yl)isoindoline-1,3-dione], the IC50 in assay [1] (setting [3]) is 0.01 to 0.1 µM; in assay [1] (setting [4]), below 0.01 µM; in assay [2] (setting [5]) it was 0.01 to 0.1 µM; in assay [2] (setting [6]) it was below 0.01 µM.
Turning to `Cc1nn([C@H]2C[C@H](CCCNc3ccc4c(c3)C(=O)N(C3CCC(=O)NC3=O)C4=O)C2)cc1-c1cccc(N2CCOCC2)n1` (stereo partly drawn) [GS-244, 2-(2,6-Dioxopiperidin-3-yl)-5-((3-(trans-3-(3-methyl-4-(6-morpholinopyridin-2-yl)-1H-pyrazol-1-yl)cyclobutyl)propyl)amino)isoindoline-1,3-dione], the IC50 in assay [1] (setting [3]) was above 1 µM; in assay [1] (setting [4]), 0.01 to 0.1 µM; in assay [2] (setting [5]), 0.1 to 1 µM; in assay [2] (setting [6]), 0.01 to 0.1 µM.
Consider `CN1CCN(c2cccc(-c3cnn([C@H]4C[C@H](CCCNc5ccc6c(c5)C(=O)N(C5CCC(=O)NC5=O)C6=O)C4)c3)n2)CC1` (stereo partly drawn) [GS-245, 2-(2,6-Dioxopiperidin-3-yl)-5-((3-(trans-3-(4-(6-(4-methylpiperazin-1-yl)pyridin-2-yl)-1H-pyrazol-1-yl)cyclobutyl)propyl)amino)isoindoline-1,3-dione], for which the IC50 in assay [1] (setting [3]) is above 1 µM; in assay [1] (setting [4]) it was 0.1 to 1 µM; in assay [2] (setting [6]), 0.01 to 0.1 µM; in assay [2] (compound alone (without gilteritinib), 11 IC50), above 1 µM.
With `O=C1CCC(N2C(=O)c3ccc(NCCC[C@H]4C[C@H](n5cc(-c6cccc(N7CCOCC7)n6)c(C6CC6)n5)C4)cc3C2=O)C(=O)N1` (stereo partly drawn) [GS-246, 5-((3-(trans-3-(3-Cyclopropyl-4-(6-morpholinopyridin-2-yl)-1H-pyrazol-1-yl)cyclobutyl)propyl)amino)-2-(2,6-dioxopiperidin-3-yl)isoindoline-1,3-dione], the IC50 in assay [1] (setting [3]) is above 1 µM; in assay [1] (setting [4]), 0.1 to 1 µM; in assay [2] (setting [5]), 0.1 to 1 µM; in assay [2] (setting [6]), 0.01 to 0.1 µM.
Regarding `O=C1CCC(N2C(=O)c3ccc(NCCC[C@H]4C[C@H](n5cc(-c6cccc(N7CCNCC7)n6)cn5)C4)cc3C2=O)C(=O)N1` (stereo partly drawn) [GS-247, 2-(2,6-Dioxopiperidin-3-yl)-5-((3-(trans-3-(4-(6-(piperazin-1-yl)pyridin-2-yl)-1H-pyrazol-1-yl)cyclobutyl)propyl)amino)isoindoline-1,3-dione], the IC50 in assay [1] (setting [3]) is above 1 µM; in assay [1] (setting [4]), 0.01 to 0.1 µM; in assay [2] (setting [5]) it was 0.1 to 1 µM; in assay [2] (setting [6]), below 0.01 µM.
In the case of `CN(C)c1cccc(-c2cnn([C@H]3C[C@H](CCCNc4ccc5c(c4)C(=O)N(C4CCC(=O)NC4=O)C5=O)C3)c2)n1` (stereo partly drawn) [GS-248, 5-((3-(trans-3-(4-(6-(Dimethylamino)pyridin-2-yl)-1H-pyrazol-1-yl)cyclobutyl)propyl)amino)-2-(2,6-dioxopiperidin-3-yl)isoindoline-1,3-dione], the IC50 in assay [1] (setting [3]) was above 1 µM; in assay [1] (setting [4]), 0.01 to 0.1 µM; in assay [2] (setting [5]), 0.01 to 0.1 µM; in assay [2] (setting [6]) it was 0.01 to 0.1 µM.
As to `O=C1CCC(N2C(=O)c3ccc(NCCC[C@H]4C[C@H](n5cc(-c6cccc(=O)[nH]6)cn5)C4)cc3C2=O)C(=O)N1` (stereo partly drawn) [GS-249, 2-(2,6-Dioxopiperidin-3-yl)-5-((3-(trans-3-(4-(6-oxo-1,6-dihydropyridin-2-yl)-1H-pyrazol-1-yl)cyclobutyl)propyl)amino)isoindoline-1,3-dione], the IC50 in assay [1] (setting [3]) is above 1 µM; in assay [1] (setting [4]) it was 0.1 to 1 µM; in assay [2] (setting [5]), 0.1 to 1 µM; in assay [2] (setting [6]) it was above 1 µM.
In the case of `O=C1CCC(N2C(=O)c3ccc(NCCC[C@H]4C[C@H](n5cc(-c6cnc7c(C8CNC8)cccc7n6)cn5)C4)cc3C2=O)C(=O)N1` (stereo partly drawn) [GS-250, 5-((3-(trans-3-(4-(5-(Azetidin-3-yl)quinoxalin-2-yl)-1H-pyrazol-1-yl)cyclobutyl)propyl)amino)-2-(2,6-dioxopiperidin-3-yl)isoindoline-1,3-dione], the IC50 in assay [1] (setting [3]) is 0.1 to 1 µM; in assay [1] (setting [4]), 0.01 to 0.1 µM; in assay [2] (setting [5]), 0.1 to 1 µM; in assay [2] (setting [6]), 0.01 to 0.1 µM.
As for `CNc1cccc(-c2cnn([C@H]3C[C@H](CCCNc4ccc5c(c4)C(=O)N(C4CCC(=O)NC4=O)C5=O)C3)c2)n1` (stereo partly drawn) [GS-251, 2-(2,6-Dioxopiperidin-3-yl)-5-((3-(trans-3-(4-(6-(methylamino)pyridin-2-yl)-1H-pyrazol-1-yl)cyclobutyl)propyl)amino)isoindoline-1,3-dione], the IC50 was in the range of 0.1 to 1 µM in assay [1] (setting [3]), 0.01 to 0.1 µM in assay [1] (setting [4]), 0.1 to 1 µM in assay [2] (setting [5]) and 0.01 to 0.1 µM in assay [2] (setting [6]).
